Source: patent US6737383B1, “Herbicidal oxadiazolidines” (priority 1999, dated 2004)

Experiments:
morningglory = assay: Test B pre/postemergence morningglory; format: in vivo, Ipomoea hederacea
In short: (§1)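 Herbicidal effect was estimated by eye on a ten-point control scale after plants spent twelve to sixteen days in a greenhouse following soil or foliar treatment. Foliar sprays targeted plants at one to four leaves; all doses were formulated in a non-phytotoxic solvent with surfactant.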

purple nutsedge = assay: Test B pre/postemergence purple nutsedge; format: in vivo, Cyperus rotundus
In short: as §1

cocklebur = assay: Test B pre/postemergence cocklebur; format: in vivo, Xanthium strumarium
In short: as §1

giant foxtail = assay: Test B pre/postemergence giant foxtail; format: in vivo, Setaria faberii
In short: as §1

sugar beet = assay: Test B pre/postemergence sugar beet; format: in vivo, Beta vulgaris
In short: as §1

wheat = assay: Test B pre/postemergence wheat; format: in vivo, Triticum aestivum
In short: as §1

corn = assay: Test B pre/postemergence corn; format: in vivo, Zea mays
In short: as §1

soybean = assay: Test B pre/postemergence soybean; format: in vivo, Glycine max
In short: as §1

bedstraw = assay: Test B pre/postemergence bedstraw; format: in vivo, Galium aparine
In short: as §1

surinam grass = assay: Test B pre/postemergence surinam grass; format: in vivo, Brachiaria decumbens
In short: as §1

blackgrass = assay: Test B pre/postemergence blackgrass; format: in vivo, Alopecurus myosuroides
In short: as §1

rape = assay: Test B pre/postemergence rape; format: in vivo, Brassica napus
In short: as §1

wild oat = assay: Test B pre/postemergence wild oat; format: in vivo, Avena fatua
In short: as §1

crabgrass = assay: Test B pre/postemergence crabgrass; format: in vivo, Digitaria sanguinalis
In short: as §1

velvetleaf = assay: Test B pre/postemergence velvetleaf; format: in vivo, Abutilon theophrasti
In short: as §1

pigweed = assay: Test B pre/postemergence pigweed; format: in vivo, Amaranthus retroflexus
In short: as §1

[1] = Preemergence, Rate 62 g/ha, scale of 0 to 10 where 0 is no effect and 10 is complete control
[2] = Preemergence, Rate 250 g/ha, scale of 0 to 10 where 0 is no effect and 10 is complete control
[3] = Preemergence, Rate 500 g/ha, scale of 0 to 10 where 0 is no effect and 10 is complete control
[4] = Rate 62 g/ha, Postemergence, scale 0 to 10, 0 no effect, 10 complete control
[5] = Rate 125 g/ha, Postemergence, scale of 0 to 10 where 0 is no effect and 10 is complete control
[6] = Rate 125 g/ha, Preemergence, scale of 0 to 10 where 0 is no effect and 10 is complete control
[7] = Rate 250 g/ha, Postemergence, scale of 0 to 10 where 0 is no effect and 10 is complete control
[8] = Rate 500 g/ha, Postemergence, scale 0 to 10, 0 no effect, 10 complete control

Q: What does the source list for `CC(=O)OCn1c(=O)on(C(=O)N(c2ccc(F)cc2)C(C)C)c1=O` [Compound 292]?
A: Morningglory plant response rating (morningglory; [1]): 0; Morningglory plant response rating (morningglory; [2]): 0; Plant response rating, Morningglory (morningglory; [3]): 0; Morningglory plant response rating (morningglory; [4]): 0; Morningglory plant response rating (morningglory; [5]): 1; Morningglory plant response rating (morningglory; [6]): 0; Plant response rating, Morningglory (morningglory; [7]): 2; Nutsedge plant response rating (purple nutsedge; [1]): 0; Nutsedge plant response rating (purple nutsedge; [2]): 0; Plant response rating, Nutsedge (purple nutsedge; [3]): 0; Nutsedge plant response rating (purple nutsedge; [4]): 0; Nutsedge plant response rating (purple nutsedge; [5]): 0; Nutsedge plant response rating (purple nutsedge; [6]): 0; Plant response rating, Nutsedge (purple nutsedge; [7]): 0; Cocklebur plant response rating (cocklebur; [1]): 0; Cocklebur plant response rating (cocklebur; [2]): 0; Plant response rating, Cocklebur (cocklebur; [3]): 0; Cocklebur plant response rating (cocklebur; [4]): 0; Cocklebur plant response rating (cocklebur; [5]): 0; Cocklebur plant response rating (cocklebur; [6]): 0; Plant response rating, Cocklebur (cocklebur; [7]): 0; Cocklebur plant response rating (cocklebur; [8]): 0; Giant foxtail plant response rating (giant foxtail; [1]): 0; Giant foxtail plant response rating (giant foxtail; [2]): 0; Plant response rating, Giant foxtail (giant foxtail; [3]): 0; Giant foxtail plant response rating (giant foxtail; [4]): 0; Giant foxtail plant response rating (giant foxtail; [5]): 0; Giant foxtail plant response rating (giant foxtail; [6]): 0; Plant response rating, Giant foxtail (giant foxtail; [7]): 0; Sugarbeets plant response rating (sugar beet; [1]): 0; Sugarbeets plant response rating (sugar beet; [2]): 0; Plant response rating, Sugarbeets (sugar beet; [3]): 0; Sugarbeets plant response rating (sugar beet; [4]): 0; Sugarbeets plant response rating (sugar beet; [5]): 0; Sugarbeets plant response rating (sugar beet; [6]): 0; Plant response rating, Sugarbeets (sugar beet; [7]): 0; Wheat plant response rating (wheat; [1]): 0; Wheat plant response rating (wheat; [2]): 0; Plant response rating, Wheat (wheat; [3]): 0; Wheat plant response rating (wheat; [4]): 0; Wheat plant response rating (wheat; [5]): 0; Wheat plant response rating (wheat; [6]): 0; Plant response rating, Wheat (wheat; [7]): 0; Corn plant response rating (corn; [1]): 0; Corn plant response rating (corn; [2]): 0; Plant response rating, Corn (corn; [3]): 0; Corn plant response rating (corn; [4]): 0; Corn plant response rating (corn; [5]): 0; Corn plant response rating (corn; [6]): 0; Plant response rating, Corn (corn; [7]): 0; Corn plant response rating (corn; [8]): 0; Soybean plant response rating (soybean; [1]): 0; Soybean plant response rating (soybean; [2]): 0; Plant response rating, Soybean (soybean; [3]): 0; Soybean plant response rating (soybean; [4]): 0; Soybean plant response rating (soybean; [5]): 0; Soybean plant response rating (soybean; [6]): 0; Plant response rating, Soybean (soybean; [7]): 1; Bedstraw plant response rating (bedstraw; [1]): 0; Bedstraw plant response rating (bedstraw; [2]): 0; Plant response rating, Bedstraw (bedstraw; [3]): 0; Bedstraw plant response rating (bedstraw; [4]): 0; Bedstraw plant response rating (bedstraw; [5]): 0; Bedstraw plant response rating (bedstraw; [6]): 0; Plant response rating, Bedstraw (bedstraw; [7]): 0; Bedstraw plant response rating (bedstraw; [8]): 0; B. signalgrass plant response rating (surinam grass; [1]): 0; B. signalgrass plant response rating (surinam grass; [2]): 0; Plant response rating, B. signalgrass (surinam grass; [3]): 0; B. signalgrass plant response rating (surinam grass; [4]): 0; B. signalgrass plant response rating (surinam grass; [5]): 0; B. signalgrass plant response rating (surinam grass; [6]): 0; Plant response rating, B. signalgrass (surinam grass; [7]): 0; B. signalgrass plant response rating (surinam grass; [8]): 0; Blackgrass plant response rating (blackgrass; [1]): 0; Blackgrass plant response rating (blackgrass; [2]): 0; Plant response rating, Blackgrass (blackgrass; [3]): 0; Blackgrass plant response rating (blackgrass; [4]): 0; Blackgrass plant response rating (blackgrass; [5]): 0; Blackgrass plant response rating (blackgrass; [6]): 0; Plant response rating, Blackgrass (blackgrass; [7]): 0; Blackgrass plant response rating (blackgrass; [8]): 0; Rape plant response rating (rape; [1]): 0; Rape plant response rating (rape; [2]): 0; Plant response rating, Rape (rape; [3]): 0; Rape plant response rating (rape; [4]): 0; Rape plant response rating (rape; [5]): 0; Rape plant response rating (rape; [6]): 0; Plant response rating, Rape (rape; [7]): 0; Wild oats plant response rating (wild oat; [1]): 0; Wild oats plant response rating (wild oat; [2]): 0; Plant response rating, Wild oats (wild oat; [3]): 0; Wild oats plant response rating (wild oat; [4]): 0; Wild oats plant response rating (wild oat; [5]): 0; Plant response rating, Wild oats (wild oat; [7]): 0; Crabgrass plant response rating (crabgrass; [1]): 0; Crabgrass plant response rating (crabgrass; [2]): 0; Plant response rating, Crabgrass (crabgrass; [3]): 0; Crabgrass plant response rating (crabgrass; [4]): 0; Crabgrass plant response rating (crabgrass; [5]): 0; Crabgrass plant response rating (crabgrass; [6]): 0; Plant response rating, Crabgrass (crabgrass; [7]): 0; Velvetleaf plant response rating (velvetleaf; [1]): 0; Velvetleaf plant response rating (velvetleaf; [2]): 0; Plant response rating, Velvetleaf (velvetleaf; [3]): 0; Velvetleaf plant response rating (velvetleaf; [4]): 0; Velvetleaf plant response rating (velvetleaf; [5]): 0; Velvetleaf plant response rating (velvetleaf; [6]): 0; Plant response rating, Velvetleaf (velvetleaf; [7]): 0; Redroot pigweed plant response rating (pigweed; [1]): 0; Redroot pigweed plant response rating (pigweed; [2]): 0; Plant response rating, Redroot pigweed (pigweed; [3]): 0; Redroot pigweed plant response rating (pigweed; [4]): 0; Redroot pigweed plant response rating (pigweed; [5]): 0; Redroot pigweed plant response rating (pigweed; [6]): 0; Plant response rating, Redroot pigweed (pigweed; [7]): 0
